Converted amounts (≈) assume the structure as drawn. The source made the active and inactive calls. The rule behind the calls is not given here.
How the values were obtained:
Escherichia coli [1] = test: Antibacterial activity against Escherichia coli ATCC 25922 assessed growth inhibition by micro broth dilution method; format: functional
Pseudomonas aeruginosa [2] = test: Antibacterial activity against Pseudomonas aeruginosa ATCC 27853 assessed growth inhibition by micro broth dilution method; format: functional
Staphylococcus aureus [3] = test: Anti-biofilm activity against Staphylococcus aureus ATCC 29213 assessed as relative biofilm clearance rate at 8 times of MIC by crystal violet staining based assay; format: functional
Enterococcus faecalis = test: Antibacterial activity against Enterococcus faecalis assessed growth inhibition by micro broth dilution method; format: functional
Staphylococcus aureus [4] = test: Antibacterial activity against Staphylococcus aureus assessed growth inhibition by micro broth dilution method; format: functional
[5] = Thermodynamic solubility of the compound in water; format: physicochemical; details: read-out: Therm_solubility
Klebsiella pneumoniae [6] = test: Antibacterial activity against Klebsiella pneumonia assessed growth inhibition by micro broth dilution method; format: functional
Staphylococcus aureus [7] = test: Antibacterial activity against methicillin-resistant Staphylococcus aureus assessed growth inhibition by micro broth dilution method; format: functional
Staphylococcus aureus [8] = test: Antibacterial activity against Staphylococcus aureus ATCC 25923 assessed growth inhibition by micro broth dilution method; format: functional
Escherichia coli [9] = test: Antibacterial activity against Escherichia coli assessed growth inhibition by micro broth dilution method; format: functional
Klebsiella pneumoniae [10] = test: Anti-biofilm activity against Klebsiella pneumonia assessed as relative biofilm clearance rate at 8 times of MIC by crystal violet staining based assay; format: functional
Acinetobacter baumannii = test: Antibacterial activity against Acinetobacter baumannii assessed growth inhibition by micro broth dilution method; format: functional
Pseudomonas aeruginosa [11] = test: Antibacterial activity against Pseudomonas aeruginosa assessed growth inhibition by micro broth dilution method; format: functional
Staphylococcus aureus [12] = test: Antibacterial activity against Staphylococcus aureus ATCC 29213 assessed growth inhibition by micro broth dilution method; format: functional
Staphylococcus aureus [13] = test: Antibacterial activity against Staphylococcus aureus ATCC 29213 assessed as decrease in relative metabolic activity at 4 times of MIC by Alamar Blue assays; format: functional, organism-based
Cell membrane [14] = test: Induction of disruption of membrane integrity in Staphylococcus aureus ATCC 29213 assessed as leakage of intracellular proteins by Acid Blue 90 based assay; format: cell membranes
Cell membrane [15] = test: Induction of outer membrane permeability in Klebsiella pneumonia assessed as increase in fluorescence intensity at 2 times of MIC by N-phenyl naphthylamine (NPN) dye based assay; format: cell membranes; details: Klebsiella pneumoniae
Cell membrane [16] = test: Induction of cytoplasmic membrane depolarization in Staphylococcus aureus ATCC 29213 assessed as increase in fluorescence intensity at 2 times of MIC measured upto 40 mins by DiSC35 dye based fluorescence method; format: cell membranes
Klebsiella pneumoniae [17] = test: Induction of ROS generation in Klebsiella pneumonia assessed as increase in fluorescence intensity by DCFH-DA based microscopic analysis; format: functional, organism-based
Klebsiella pneumoniae [18] = test: Antibacterial activity against Klebsiella pneumonia assessed as decrease in relative metabolic activity at 4 times of MIC by Alamar Blue assays; format: functional, organism-based
Erythrocyte = test: Hemolytic activity in human RBC incubated measured upto 128 ug/ml; format: toxicity, cell-based; details: dose < 128 µg/ml
Cell membrane [19] = test: Induction of disruption of membrane integrity in Klebsiella pneumonia assessed as leakage of intracellular proteins by Acid Blue 90 based assay; format: cell membranes; details: Klebsiella pneumoniae
Cell membrane [20] = test: Induction of cytoplasmic membrane depolarization in Klebsiella pneumonia assessed as increase in fluorescence intensity at 2 times of MIC measured upto 40 mins by DiSC35 dye based fluorescence method; format: cell membranes; details: Klebsiella pneumoniae, DISRUPTING AGENT
Staphylococcus aureus [21] = test: Bactericidal activity against Staphylococcus aureus ATCC 29213 assessed as time dependent killing at 4 times of MIC measured at 8 hrs; format: functional, organism-based
Klebsiella pneumoniae [22] = test: Induction of ROS generation in Klebsiella pneumonia assessed as loss of GSH activity by Ellmans method; format: functional, organism-based
Staphylococcus aureus [23] = test: Induction of ROS generation in Staphylococcus aureus ATCC 29213 assessed as loss of GSH activity by Ellmans method; format: functional, organism-based
Klebsiella pneumoniae [24] = test: Bactericidal activity against Klebsiella pneumonia assessed as time dependent killing at 4 times of MIC measured at 8 hrs; format: functional, organism-based
Staphylococcus aureus [25] = test: Induction of ROS generation in Staphylococcus aureus ATCC 29213 assessed as increase in fluorescence intensity by DCFH-DA based microscopic analysis; format: functional, organism-based

Row | Compound | MIC (Escherichia coli [1]) [µg/mL] | MIC (Pseudomonas aeruginosa [2]) [µg/mL] | MIC (Enterococcus faecalis) [µg/mL] | MIC (Staphylococcus aureus [4]) [µg/mL] | MIC (Klebsiella pneumoniae [6]) [µg/mL] | MIC (Staphylococcus aureus [7]) [µg/mL] | MIC (Staphylococcus aureus [8]) [µg/mL] | MIC (Escherichia coli [9]) [µg/mL] | MIC (Acinetobacter baumannii) [µg/mL] | MIC (Pseudomonas aeruginosa [11]) [µg/mL] | MIC (Staphylococcus aureus [12]) [µg/mL] | also measured
1 | CCOC(=O)c1cn(Cc2ccc(Cl)c(Cl)c2)c2cc([C-](C#N)C(=O)OCC)c(F)cc2c1=O.[Na+] (centres undefined) | 0.25 | 0.5 | 1 | 64 | 0.25 | 8 | 0.25 | 0.25 | 1 | 4 | 0.25 | Activity (Staphylococcus aureus [3]): 70%; solubility thermodynamic [5]: 97.3 µg/mL; Activity (Klebsiella pneumoniae [10]): 70%
2 | CCOC(=O)C(C#N)c1cc2c(cc1F)c(=O)c(C(=O)O)cn2C1CC1 (centres undefined) | 0.5 (≈ 1.4 µM) | 4 (≈ 11.2 µM) | 64 (≈ 179 µM) | 0.5 (≈ 1.4 µM) | 0.25 (≈ 0.698 µM) | 2 (≈ 5.58 µM) | 8 (≈ 22.3 µM) | 32 (≈ 89.3 µM) | 1 (≈ 2.79 µM) | 16 (≈ 44.7 µM) | 0.5 (≈ 1.4 µM) | Activity (Staphylococcus aureus [13]): Active; Activity (Cell membrane [14]): Dose-Dependent Effect; Activity (Cell membrane [15]): Dose-Dependent Effect; Activity (Cell membrane [16]): Active; Activity (Klebsiella pneumoniae [17]): Dose-Dependent Effect; Activity (Klebsiella pneumoniae [18]): Active; Activity (Erythrocyte): Non-Toxic; Activity (Cell membrane [19]): Dose-Dependent Effect; Activity (Cell membrane [20]): Active; Activity (Staphylococcus aureus [21]): Active; Activity (Klebsiella pneumoniae [22]): Dose-Dependent Effect; Activity (Staphylococcus aureus [23]): Dose-Dependent Effect; Activity (Klebsiella pneumoniae [24]): Active; Activity (Staphylococcus aureus [25]): Dose-Dependent Effect
